Tests used:
[1] = test system: VSMCs; assay: Whole genome microarray analysis (Illumina HumanHT-12 v4) of cultured VSMCs treated with progestins; type: cell-based, human; conditions: VSMCs treated by ETO
Source text: Cultured VSMCs (n=3) treated with control medium or medium containing medroxyprogesterone acetate (MPA, 10^−7 M), or etonogestrel (ETO, 10^−7 M) were processed for whole genome analyses using Illumina Human microarray kit. After qRT-PCR confirmation of several up and down regulated genes from microarray data, Ingenuity Pathway Analysis (IPA) determined relevant upstream signaling of LAPC altered gene expression. To investigate the role of genes and relevant signaling molecules identified by IPA, VSMCs (n=3) treated with MPA or ETO±1 or 10 ng/ml recombinant CCL2 (rCCL2)±STAT1 inhibitor, 5′-methyl-thioadenosine (MTA, 100 μM) were analyzed by BrdU incorporation proliferation, TUNEL based ELISA apoptosis and Transwell insert migration assays.
VSMCs were thawed and cultured in medium 231 (M231; Life Technologies) with smooth muscle growth supplement (5% FBS; 2 ng/mL human basic fibroblast growth factor, 0.5 ng/mL human epidermal growth factor, 5 ng/mL heparin, 0.2 μg/mL insulin and 5 μg/mL BSA; Life Technologies) with 100 U/mL penicillin, 100 μg/mL streptomycin, 0.25 μg/mL fungizone. Confluent VSMCs were washed twice with 1×PBS to remove residual serum, passaged in 96-well or 6-well plates and incubated in parallel in M231 with 1% charcoal striped FBS with 0.1% ethanol (vehicle, control) or 10^−7 M MPA (Sigma-Aldrich) or 10^−7 M ETO (Organon) or 10^−7 M P4 (Sigma-Aldrich) for 15 min, 6, 48, and 72 h. VSMCs were then washed with ice-cold PBS and stored at −80° C. for further RNA and protein analyses.
Total RNA was isolated using Qiagen miRNeasy Mini Kit (Qiagen) and RNeasy MinElute Cleanup Kit (Qiagen). The quality of isolated RNAs was confirmed using an Agilent 2100 Bioanalyzer. Microarray analysis was limited to those specimens in which RNA Integrity Number exceeded 8. Microarray processes were performed in the Keck Biotechnology Resource Laboratory at Yale University (New Haven, Conn.) using Illumina Human HT-12 v4 BeadChip (Illumina). Raw data without normalization were analyzed by GeneSpring GX12.5 software (Agilent Technologies-Silicon Genetics). Normalization was performed as described (35). Genes with a fold-change >1.25 and a P value<0.05 were considered differentially expressed. Ingenuity Pathway Analysis (IPA) software (Qiagen) explored molecular and biological networks related to differentially expressed genes.

[2] = test system: VSMCs; assay: Transwell insert migration assay; type: cell-based, human; conditions: 12-h incubation, 10^−7 M; control 48.4%
Procedure: VSMCs (75,000 cells/200 μL) were suspended in M231 containing 1% charcoal striped FBS and either 0.1% ethanol (vehicle control) or the corresponding steroids and seeded onto insert wells (transwell filter with 12-μm pores; EMD Millipore). The inserts were then placed in 24-well plates containing 500 μL M231 with 1% charcoal striped FBS. After 12 h, cells remaining on the upper surface of the filter were removed with a cotton swab. Migrated cells were trypsinized, centrifuged, and resuspended in 200 μL of M231 medium. The cell suspensions were mixed with 200 μL 10% ethanol containing 0.4% Trypan blue dye and the live cell number was counted by Countess Automated Cell Counter (Invitrogen). See further details in SI Materials and Methods.
Cultured VSMCs were grown in T-75 cell culture flasks in M231 (Life Technologies) with smooth muscle growth supplement (Life Technologies) with 100 U/mL penicillin, 100 μg/mL streptomycin, 0.25 μg/mL fungizone. Confluent VSMCs were washed twice with 1×PBS to remove residual serum, and then trypsinized, resuspended (75,000 cells per 200 μL per well) in M231 with 1% charcoal striped FBS with 0.1% ethanol (vehicle, control), 10^−7 M MPA (Sigma-Aldrich), 10^−7 M ETO (Organon), or 10^−7 M P4 (Sigma-Aldrich)±rCCL2 (R&D Systems) and seeded on insert wells (transwell filter with 12-μm pores; EMD Millipore), which were then placed in 24-well plates containing 500 μL M231 with 1% charcoal striped FBS. After 12 h, cells remaining on the upper surface of the filter were removed with a cotton swab. Migrated cells attached to the lower surface of each insert or to the surface of lower wells were collected by trypsinization, followed by centrifugation and resuspension in 200 μL of M231 medium. The cell suspensions were mixed with 200 μL 10% ethanol containing 0.4% Trypan blue dye (selectively stains only dead cells blue, whereas live cells with intact cell membranes remain unstained) for 5 min. A mixture of 100 μL M231 and 100 μL 10% ethanol containing 0.4% Trypan blue dye was used as a negative control. To detect live cell numbers, 10 μL of final cell/Trypan blue dye suspension from each treatment condition was pipetted into Countess Cell Counting Chamber Slide and counted by using Countess Automated Cell Counter (Invitrogen). The counting procedure was performed in duplicate.

C#C[C@]1(O)CC[C@H]2[C@@H]3CCC4=CC(=O)CC[C@@H]4[C@H]3C(=C)C[C@@]21CC [ETO, etonogestrel]
Fold-change, ABI gene family, member 3 (NESH) binding protein (ABI3BP) [1]: −1.636
Fold-change, Actin, γ 2, smooth muscle, enteric (ACTG2) [1]: 1.514
Fold-change, Alcohol dehydrogenase 1A (class I), alpha polypeptide (ADH1A) [1]: 1.54
Fold-change, Bone morphogenetic protein 6 (BMP6) [1]: 1.467
Fold-change, Chemokine (C-C motif) ligand 2 (CCL2) [1]: −2.211
Fold-change, Claudin 11 (oligodendrocyte transmembrane protein) (CLDN11) [1]: −1.544
Fold-change, Collagen, type VIII, α 1, transcript variant 2 (COL8A1) [1]: 1.44
Fold-change, Complement factor B (CFB) [1]: −1.835
Fold-change, Cysteine-rich secretory protein LCCL domain containing 2, (CRISPLD2) [1]: 1.661
Fold-change, DNA-damage regulated autophagy modulator 1 (DRAM1) [1]: −1.535
Fold-change, Decorin, transcript variant A2, (DCN) [1]: 1.762
Fold-change, EF-hand domain family, member D1 (EFHD1) [1]: 1.471
Fold-change, Endoglin (Osler-Rendu-Weber syndrome 1) (ENG) [1]: −1.428
Fold-change, Filaggrin (FLG) [1]: −1.59
Fold-change, Growth arrest-specific 6 (GAS6) [1]: 1.4661
Fold-change, H19, imprinted maternally expressed transcript noncoding RNA (H19) [1]: 2.497
Fold-change, Hypothetical protein FLJ40504 (FLJ40504) [1]: −1.625
Fold-change, Indolethylamine N-methyltransferase (INMT) [1]: 1.443
Fold-change, Intelectin 2 (ITLN2) [1]: 1.655
Fold-change, LY6/PLAUR domain containing 1, transcript variant 1 (LYPD1) [1]: −1.447
Fold-change, Latexin (LXN) [1]: −1.779
Fold-change, Leptin (obesity homolog, mouse) (LEP) [1]: 1.602
Fold-change, Mitogen-activated protein kinase kinase 2 (MAP2K2) [1]: −1.437
Fold-change, PREDICTED: miscRNA (LOC399965) [1]: −1.534
Fold-change, PREDICTED: similar to LYPDC1 protein (LOC100134073) [1]: −1.536
Fold-change, PREDICTED: similar to filaggrin (LOC730833) [1]: −1.474
Fold-change, Pleckstrin homology-like domain, family A, member 1 (PHLDA1) [1]: −1.487
Fold-change, Potassium voltage-gated channel, shaker-related subfamily, 0 member 1, transcript variant2 (KCNAB1) [1]: −1.492
Fold-change, Prostaglandin-endoperoxide synthase 1, transcript variant 2 (PTGS1) [1]: 1.555
Fold-change, RAB11 family interacting protein 1 (class I), transcript variant 3, (RAB11FIP1) [1]: 1.55
Fold-change, Retinoic acid receptor responder (tazarotene induced) 1, transcript variant 1, (RARRES1) [1]: −2.146
Fold-change, Retinoic acid receptor responder (tazarotene induced) 1, transcript variant 2, (RARRES1) [1]: −1.809
Fold-change, Superoxide dismutase 2, mitochondrial, transcript variant 2, (SOD2) [1]: −1.778
Fold-change, Thioredoxin domain containing 5, transcript variant 2 (TXNDC5) [1]: 1.429
Fold-change, Transmembrane 4 L six family member 1 (TM4SF1) [1]: −1.467
Fold-change, Transmembrane protein 119 (TMEM119) [1]: 1.448
Fold-change, Wingless-type MMTV integration site family, member 5A (WNT5A) [1]: 1.504
Fold-change, cDNA FLJ20769 fis, clone COL06674 (PREDICTED: Receptor tyrosine kinase-like orphan receptor 1) [1]: 1.528
Fold-change, Matrix Gla protein (MGP) ([1]; table entry 6): 1.581
Fold-change, Matrix Gla protein (MGP) ([1]; table entry 8): 1.554
migration rate [2]: 29.6%

Reference: patent US20180078615A1, “USE OF CCL2 TO INHIBIT ABNORMAL UTERINE BLEEDING” (UNIVERSITY OF SOUTH FLORIDA, priority 2015, published 2018)
